Test system: patients with nonconstipation irritable bowel syndrome (non-C IBS)
Test: Trial of rifaximin 550 mg TID for 14 days with 10-week follow-up (Example 5; Study 2 of Example 6)
Assay type: in vivo, human
Excerpt: A measure of efficacy is based on subjects' answers to the Weekly Subject Global Assessment (SGA) questions over the 4 week study duration in relation to their IBS symptoms. […] Another measure of efficacy is based on subjects' answers to the Weekly Subject Global Assessment (SGA) question over the 4 week study duration in relation to their IBS symptom of bloating. The SGA question is asked weekly as follows: “In the past 7 days, have you had adequate relief of your IBS symptom of bloating?” (Yes/No). […] Other measures of efficacy include the changes in dIBS symptoms from baseline to each week of the 4 weeks in the study (e.g., abdominal pain and discomfort, bloating, number of stools per day, stool consistency, urgency with loose or watery stools).
The primary efficacy endpoint of the study was the proportion of subjects who achieve adequate relief of IBS symptoms for at least 2 weeks during 10 the first 4 weeks of the 10-week follow-up phase.
Two measures of efficacy were assessed.
Subjects were questioned on the relief of overall IBS symptoms and bloating. […] The analyses defined success as a “yes” response to questions regarding adequate relief.
Assessment (SGA) questions over the 4 week study duration in relation to their IBS symptoms. […] Another measure of efficacy is based on subjects' answers to the Weekly Subject Global Assessment (SGA) question over the 4 week study duration in relation to their IBS symptom of bloating. The SGA question is asked weekly as follows: “In the past 7 days, have you had adequate relief of your IBS symptom of bloating'?” (Yes/No).
All subpopulations in the study responded to therapy. Baseline severity was determined during screening for Abdominal Pain/Discomfort and Bloating, and the number, type (normal, hard, loose) and urgency of bowel movements. Duration of effect was assessed in a ten week follow-up period.
A measure of efficacy is based on subjects' answers to the Weekly Subject Global Assessment (SGA) questions over the study duration in relation to their IBS symptoms.

[1] = Age Group: <65, Rifaximin 550 mg TID (N = 281)
[2] = Age Group: >=65, Rifaximin 550 mg TID
[3] = Gender: Female, Rifaximin 550 mg TID (N = 226)
[4] = Gender: Male, Rifaximin 550 mg TID (N = 85)
[5] = IBS Subtype: Alternating-predominant, Rifaximin 550 mg TID
[6] = IBS Subtype: Diarrhoea-predominant, Rifaximin 550 mg TID
[7] = Population: ITT, Rifaximin 550 mg TID (N = 315)
[8] = Population: PP, Rifaximin 550 mg TID (N = 311)
[9] = Population: PP, Rifaximin 550 mg TID (N = 311), Weeks 3 through 6
[10] = Race: Non-White, Rifaximin 550 mg TID (N = 31)
[11] = Race: White, Rifaximin 550 mg TID (N = 280)
[12] = Rifaximin 550 mg TID (N = 315), weekly SGA, at least 2 of Weeks 3 through 6, LOCF
[13] = Study 2, at least 2 out of 4 weeks adequate relief during weeks 3 through 6 (weekly question)
[14] = Study 2, at least 2 weeks during PEP

## (2S,16Z,18E,20S,21S,22R, 23R,24R,25S,26S,27S,28E)-5,6,21,23,25 Pentahydroxy-27-methoxy -2,4,11,16,20,22,24,26-octamethyl-2,7-(epoxypentadeca-(1,11,13)trienimino)benzofuro (4,5-e) pyrido(1,2,-a) benzimidazole-1,15(2H)-dione,25-acetate [Rifaximin]
550 mg TID for 2 weeks
  Adequate relief of IBS related symptoms (SGA) and IBS-related bloating (IBS-B): statistically significant relief
[1]
  Adequate Relief of IBS symptom of Bloating: Failure: 171 (60.9%) N (%)
  Adequate Relief of IBS symptom of Bloating: Success: 110 (39.1%) N (%)
  Adequate Relief of IBS symptoms: Failure: 171 (60.9%) N (%)
  Adequate Relief of IBS symptoms: Success: 110 (39.1%) N (%)
[2]
  Adequate Relief of IBS symptom of Bloating: Failure: 16 (53.3%) N (%)
  Adequate Relief of IBS symptom of Bloating: Success: 14 (46.7%) N (%)
  Adequate Relief of IBS symptoms: Failure: 16 (53.3%) N (%)
  Adequate Relief of IBS symptoms: Success: 14 (46.7%) N (%)
[3]
  Adequate Relief of IBS symptom of Bloating: Failure: 128 (56.6%) N (%)
  Adequate Relief of IBS symptom of Bloating: Success: 98 (43.4%) N (%)
  Adequate Relief of IBS symptoms: Failure: 130 (57.5%) N (%)
  Adequate Relief of IBS symptoms: Success: 96 (42.5%) N (%)
[4]
  Adequate Relief of IBS symptom of Bloating: Failure: 59 (69.4%) N (%)
  Adequate Relief of IBS symptom of Bloating: Success: 26 (30.6%) N (%)
  Adequate Relief of IBS symptoms: Failure: 57 (67.1%) N (%)
  Adequate Relief of IBS symptoms: Success: 28 (32.9%) N (%)
[5]
  Adequate Relief of IBS symptom of Bloating: Failure: 19 (55.9%) N (%)
  Adequate Relief of IBS symptom of Bloating: Success: 15 (44.1%) N (%)
  Adequate Relief of IBS symptoms: Failure: 21 (61.8%) N (%)
  Adequate Relief of IBS symptoms: Success: 13 (38.2%) N (%)
[6]
  Adequate Relief of IBS symptom of Bloating: Failure: 168 (60.6%) N (%)
  Adequate Relief of IBS symptom of Bloating: Success: 109 (39.4%) N (%)
  Adequate Relief of IBS symptoms: Failure: 166 (59.9%) N (%)
  Adequate Relief of IBS symptoms: Success: 111 (40.1%) N (%)
[7]
  Adequate Relief of IBS symptom of Bloating Based on Daily Measures: Failure: 182 (57.8%) N (%)
  Adequate Relief of IBS symptom of Bloating Based on Daily Measures: Success: 133 (42.2%) N (%)
  Adequate Relief of IBS symptoms Based on Daily Measures: Failure: 200 (63.5%) N (%)
  Adequate Relief of IBS symptoms Based on Daily Measures: Success: 115 (36.5%) N (%)
[8]
  Adequate Relief of IBS symptom of Bloating Based on Daily Measures: Failure: 180 (57.9%) N (%)
  Adequate Relief of IBS symptom of Bloating Based on Daily Measures: Success: 131 (42.1%) N (%)
  Adequate Relief of IBS symptoms Based on Daily Measures: Failure: 196 (63.0%) N (%)
  Adequate Relief of IBS symptoms Based on Daily Measures: Success: 115 (37.0%) N (%)
[9]
  Adequate Relief of IBS symptom of Bloating: Failure: 187 (60.1%) N (%)
  Adequate Relief of IBS symptom of Bloating: Success: 124 (39.9%) N (%)
  Adequate Relief of IBS symptoms: Failure: 187 (60.1%) N (%)
  Adequate Relief of IBS symptoms: Success: 124 (39.9%) N (%)
[10]
  Adequate Relief of IBS symptom of Bloating: Failure: 17 (54.8%) N (%)
  Adequate Relief of IBS symptom of Bloating: Success: 14 (45.2%) N (%)
  Adequate Relief of IBS symptoms: Failure: 16 (51.6%) N (%)
  Adequate Relief of IBS symptoms: Success: 15 (48.4%) N (%)
[11]
  Adequate Relief of IBS symptom of Bloating: Failure: 170 (60.7%) N (%)
  Adequate Relief of IBS symptom of Bloating: Success: 110 (39.3%) N (%)
  Adequate Relief of IBS symptoms: Failure: 171 (61.1%) N (%)
  Adequate Relief of IBS symptoms: Success: 109 (38.9%) N (%)
[12]
  Adequate Relief of IBS symptom of Bloating: Failure: 190 (60.3%) n (%)
  Adequate Relief of IBS symptom of Bloating: Success: 125 (39.7%) n (%)
  Adequate Relief of IBS symptoms: Failure: 190 (60.3%) n (%)
  Adequate Relief of IBS symptoms: Success: 125 (39.7%) n (%)
Study 2, <2 for at least 50% of days in a week for at least 2 weeks during PEP
  Daily abdominal pain <2, responders: 39%
[13]
  Global IBS symptoms, responders: 41%
  IBS symptom of Bloating, responders: 41%
[14]
  Abdominal Pain reduction of 2 point in mean, responders: 25%
  Abdominal Pain reduction of 2 point in median, responders: 41%
  Abdominal Pain reduction of 3 point in mean, responders: 6% vs 7%
  Abdominal Pain reduction of 3 point in median, responders: 21%
  Overall reduction of mean weekly abdominal pain by >=25%, responders: 58%
  Overall reduction of mean weekly abdominal pain by >=50%, responders: 35%
  Overall reduction of mean weekly abdominal pain by >=75%, responders: 14%
  Overall reduction of median weekly abdominal pain by >=25%, responders: 62%
  Overall reduction of median weekly abdominal pain by >=50%, responders: 44%
  Overall reduction of median weekly abdominal pain by >=75%, responders: 20%
Study 2, weekly mean vs baseline for at least 2 weeks during PEP
  Abdominal pain reduction of 1 point in mean, responders: 52%
Study 2, weekly median vs baseline for at least 2 weeks during PEP
  Abdominal pain reduction of 1 point in median, responders: 62%
Week 1, Rifaximin 550 mg TID
  % with decrease in SF (stool frequency): 14.4%
Week 2, Rifaximin 550 mg TID
  % with decrease in SF (stool frequency): 20.6%
Week 3, Rifaximin 550 mg TID
  % with decrease in SF (stool frequency): 22.2%
Week 4, Rifaximin 550 mg TID
  % with decrease in SF (stool frequency): 21.6%
Week 5, Rifaximin 550 mg TID
  % with decrease in SF (stool frequency): 25.7%
Week 6, Rifaximin 550 mg TID
  % with decrease in SF (stool frequency): 22.9%
Week 7, Rifaximin 550 mg TID
  % with decrease in SF (stool frequency): 23.8%
Week 8, Rifaximin 550 mg TID
  % with decrease in SF (stool frequency): 24.4%
Week 9, Rifaximin 550 mg TID
  % with decrease in SF (stool frequency): 25.4%
Week 10, Rifaximin 550 mg TID
  % with decrease in SF (stool frequency): 26.7%
Week 11, Rifaximin 550 mg TID
  % with decrease in SF (stool frequency): 25.4%
Week 12, Rifaximin 550 mg TID
  % with decrease in SF (stool frequency): 27.0%
